Assay results published in publication PMC12036814 (Angewandte Chemie (International Ed. in English), 2025).
Read-outs that look alike come from different tables or passages of the source.

What was measured:
PDL-hTERT cells = test: Live/dead staining and microscopy (morphology); format: cell-based; design: dose or concentration left out as unconfirmed; details: […] µM, 7 days
Method: For PDL-hTERT cells (9 x 10^4 cells /well) were plated in each well of 6 -well plates (Greiner Bio-One,
Frickenhausen, Germany) and incubated for 3 days at 37 °C and 5% CO2. Afterwards, cells were treated
Afterwards, the cells were stained with 1 µM calcein
acetoxymethyl (calcein AM) and 10 µM propidium iodide, diluted from 100 µM and 1 mM stock
solutions respectively. The diluent was given to the cells in a mixture of 1:1 PBS to culture medium.
Calcein AM is cell permeable and in living cells is converted to fluorescent calcein by intracellular
estarases, thus labelling the cells in green colour. Propidium iodide is a fluorescent dye that can only
traverse cells with damaged membranes, thus marking dead cells in red colour (to note: dead cells
frequently detach during the staining procedure). Last, cells were imaged on day 1, 4, and 7 in phase -
contrast, FITC (green) and Cy3 (red) fluorescent channels using Zeiss AxioVert.A1 microscope equipped
with AxioCam ICc1 camera (Carl Zeiss, Göttingen, Germany). Each image was automatically processed
using the “Min/Max” option provided by the micriscope software Zen 2.3 lite (Carl Zeiss). The
experiment was repeated three independent times (n = 3), each performed in duplicate wells for
control and Cipro-containing groups.

[1] = system: AIFM1 knockout HEK293 cells; test: Whole proteome analysis of AIFM1 knockout HEK293 cells; format: cell-based, human; design: dose or concentration left out as unconfirmed; details: […] μM, 3 days, versus vehicle-treated AIFM1 knockout cells
NUDT1 = NUDT1 (Homo sapiens, UniProt P36639); test: Thermal protein profiling (TPP) in intact HEK293 cells; format: cell-based; design: endogenous in cells; host or cells: HEK293; details: 1 h
Method: incubated in a thermoshaker (600 rpm, 16 h, 37 °C). The digest was stopped by adding 10 μL formic
acid (FA) and vortexing followed by centrifugation (12,000 ×g, 3 min, room temperature). 50 mg
SepPak C18 columns (Waters, Milford, USA, Cat# WAT054960) were equilibrated by gravity flow two
times with 1 mL acetonitrile and three times with 1 mL aqueous 0.1% trifluoroacetic acid (TFA) solution.
Subsequently, the samples were loaded by gravity flow, washed three times with 1 mL aqueous 0.1%
TFA solution and once with 0.5 mL aqueous 0.5% formic acid (F A) solution. Elution of peptides into
new 2.0 mL Protein LoBind Eppendorf tubes was performed by two times addition of 250 μL elution
buffer (80% acetonitrile, 0.5% FA) by gravity flow followed by 250 μL elution buffer by vacuum flow
until all liquid was eluted from the column. The eluates were lyophilized. Before MS measurement the
(brief centrifugation after each step).
Thermal protein profiling (TPP)
The experiment was performed similarly to TPP-TR experiments described by Franken et al. with minor
modifications.5 HEK293 cells were grown in 8 T175 flasks to approx. 80-90% confluency. Per replicate
volume of 0.1 N HCl as vehicle control. Per condition two replicates were used, leading to a total of 8
T175 flasks. The cells were washed with PBS, detached with accutase, the two flask per replicate […]

SMILES: O=C(O)c1cn(C2CC2)c2cc(N3CCNCC3)c(F)cc2c1=O [Ciprofloxacin]
- cell morphology (PDL-hTERT cells): cell rounding
- regulation of ETC subunits in AIFM1 knockout cells [1]: only minor additional alterations of ETC subunits
- ΔTm at 70 µM (NUDT1; read-out: ΔTm Rep. 1): 3.29 °C
- ΔTm at 70 µM (NUDT1; read-out: ΔTm Rep. 2): 3.4 °C
